According to US8653110B2, “Active compound combination comprising azadirachtin and a substituted enaminocarbonyl compound” (Bayer CropScience AG, priority 2010, dated 2014):

Test system: Cyclocephala immaculata
Experiment: Watering test with beetle larvae (Example 2)
Format: in vivo
Settings: L3 larvae, watering, (I-1) 600, azadirachtin 60, (I-1)+azadirachtin 600+60, trichlorfon 4529 g of active compound/ha
From the text: Beetle larvae (grubs) are important lawn pests. On the one hand, they feed on grass roots, damaging them directly, on the other hand they are a favoured food for birds which, searching for grubs, destroy the turf. For treatment against grubs, infested lawns are usually watered with insecticidal compositions. This type of treatment is emulated in the laboratory by Example 2.
To prepare a suitable active compound preparation, a commercial formulation of active compound or active compound combination is mixed with water until the desired concentration is reached. Pots with soil substrate were watered with the following active compound preparations: • 1. untreated • 2. compound (I-1) as SL 200, 600 g of active compound/ha • 3. azadirachtin, 60 g of active compound/ha • 4. compound (I-1) as SL 200+azadirachtin, 600+60 g of active compound/ha • 5. positive control: trichlorfon 4529 g of active compound/ha
L3 larvae of Cyclocephala immaculata were placed onto the pots. After 1, 4, 7, 14 days, the survival rate was determined, and this was used to calculate the efficacy of the compositions. 100% means that all grubs were killed, 0% means no activity.

In the case of `COP(=O)(OC)C(O)C(Cl)(Cl)Cl` (stereo not shown) [trichlorfon], the “Effect on day 1 in %” value (day 1) is reported as 0%, the “Effect on day 4 in %” value (day 4) is reported as 17% and the “Effect on day 7 in %” value (day 7) is reported as 29%. For the same molecule, the “Effect on day 14 in %” value (day 14) was 50%.
